The values below come from patent US11708348B2, “Protease inhibitors for treatment of coronavirus infections” (The Scripps Research Institute, priority 2021, dated 2023).

Molecules are shown by their SMILES.

The experiment has as its system SARS-CoV-2 strain USA-WA1/2020. Nature of the experiment: microbe, parasite or virus in culture. It counts as cell-based. Particulars: Severe acute respiratory syndrome coronavirus 2, HeLa-ACE2, 24 h, HeLa-ACE2 cells, SARS-CoV-2 infection, 24 h; read-out: EC50, uM (Hela).
Consider `CC(C)(F)C[C@@H](O)C(=O)N1CC2(CC2)C[C@H]1C(=O)N[C@@H](C[C@@H]1CCNC1=O)C(=O)COC(F)(F)F` [Compound 754, (S)-5-((R)-4-fluoro-2-hydroxy-4-methylpentanoyl)-N-((S)-3-oxo-1-((S)-2-oxopyrrolidin-3-yl)-4-(trifluoromethoxy)butan-2-yl)-5-azaspiro[2.4]heptane-6-carboxamide], for which the EC50 lay in the range of 0.05 to 0.2 µM.

As for `[2H]C([2H])([2H])C([2H])([2H])CCCC(=O)N1CC2(CC2)C[C@H]1C(=O)N[C@@H](C[C@@H]1CCNC1=O)C(=O)COC(F)(F)F` [Compound 755, (S)-5-(hexanoyl-5,5,6,6,6-d5)-N-((S)-3-oxo-1-((S)-2-oxopyrrolidin-3-yl)-4-(trifluoromethoxy)butan-2-yl)-5-azaspiro[2.4]heptane-6-carboxamide], the concentration giving a half-maximal response (EC50) was less than 0.05 µM.

In the case of `CC(O)C(F)(F)C(=O)N1CC2(CC2)C[C@H]1C(=O)N[C@@H](C[C@@H]1CCNC1=O)C(=O)COC(F)(F)F` (stereo partly drawn) [Compound 756, (6S)-5-(2,2-difluoro-3-hydroxybutanoyl)-N-((S)-3-oxo-1-((S)-2-oxopyrrolidin-3-yl)-4-(trifluoromethoxy)butan-2-yl)-5-azaspiro[2.4]heptane-6-carboxamide], the EC50 was 0.05 to 0.2 µM.

`[2H]C([2H])([2H])CCCCC(=O)N1CC2(CC2)C[C@H]1C(=O)N[C@@H](C[C@@H]1CCNC1=O)C(=O)COC(F)(F)F` [Compound 757, (S)-5-(hexanoyl-6,6,6-d3)-N-((S)-3-oxo-l-((S)-2-oxopyrrolidin-3-yl)-4-(trifluoromethoxy)butan-2-yl)-5-azaspiro[2.4]heptane-6-carboxamide]: the EC50 is less than 0.05 µM.

Turning to `CCC(OC)C(=O)N1CC2(CC2)C[C@H]1C(=O)N[C@@H](C[C@@H]1CCNC1=O)C(=O)COC(F)(F)F` (stereo partly drawn) [Compound 758, (6S)-5-(2-methoxybutanoyl)-N-((S)-3-oxo-1-((S)-2-oxopyrrolidin-3-yl)-4-(trifluoromethoxy)butan-2-yl)-5-azaspiro[2.4]heptane-6-carboxamide], the EC50 is 0.2 to 0.5 µM.

Take `O=C1NCC[C@H]1C[C@H](NC(=O)[C@@H]1CC2(CC2)CN1C(=O)[C@H](O)C1CCC1)C(=O)COC(F)(F)F` [Compound 760, (S)-5-((R)-2-cyclobutyl-2-hydroxyacetyl)-N-((S)-3-oxo-1-((S)-2-oxopyrrolidin-3-yl)-4-(trifluoromethoxy)butan-2-yl)-5-azaspiro[2.4]heptane-6-carboxamide]: the EC50 is 0.05 to 0.2 µM.

With `CC(C)C[C@@H](O)C(=O)N1C[C@H](c2ccccc2)C[C@H]1C(=O)N[C@@H](C[C@@H]1CCNC1=O)C(=O)COC(F)(F)F` [Compound 761, (2S,4S)-1-((R)-2-hydroxy-4-methylpentanoyl)-N-((S)-3-oxo-1-((S)-2-oxopyrrolidin-3-yl)-4-(trifluoromethoxy)butan-2-yl)-4-phenylpyrrolidine-2-carboxamide], the EC50 is less than 0.05 µM.

For the molecule `CC(C)(F)C(O)C(=O)N1CC2(CC2)C[C@H]1C(=O)N[C@@H](C[C@@H]1CCNC1=O)C(=O)COC(F)(F)F` (stereo partly drawn) [Compound 762, (6S)-5-(3-fluoro-2-hydroxy-3-methylbutanoyl)-N-((S)-3-oxo-1-((S)-2-oxopyrrolidin-3-yl)-4-(trifluoromethoxy)butan-2-yl)-5-azaspiro[2.4]heptane-6-carboxamide], the EC50 lay within 0.05 to 0.2 µM.

As to `[2H]C([2H])([2H])CCCC(=O)N1CC2(CC2)C[C@H]1C(=O)N[C@@H](C[C@@H]1CCNC1=O)C(=O)COC(F)(F)F` [Compound 763, (S)-N-((S)-3-oxo-1-((S)-2-oxopyrrolidin-3-yl)-4-(trifluoromethoxy)butan-2-yl)-5-(pentanoyl-5,5,5-d3)-5-azaspiro[2.4]heptane-6-carboxamide], the concentration for a half-maximal effect (EC50) was less than 0.05 µM.

Take `[2H]C([2H])([2H])CCC(=O)N1CC2(CC2)C[C@H]1C(=O)N[C@@H](C[C@@H]1CCNC1=O)C(=O)COC(F)(F)F` [Compound 764, (S)-5-(butanoyl-4,4,4-d3)-N-((S)-3-oxo-1-((S)-2-oxopyrrolidin-3-yl)-4-(trifluoromethoxy)butan-2-yl)-5-azaspiro[2.4]heptane-6-carboxamide]: the EC50 lay in the range of 0.05 to 0.2 µM.

On to `CC(C)C[C@H](NS(=O)(=O)c1ccc2c(ccn2C)c1)C(=O)N[C@@H](C[C@@H]1CCNC1=O)C(=O)COc1c(F)c(F)cc(F)c1F` [Compound 765, (S)-4-methyl-2-((l-methyl-1H-indole)-5-sulfonamido)-N-((S)-3-oxo-1-((S)-2-oxopyrrolidin-3-yl)-4-(2,3,5,6-tetrafluorophenoxy)butan-2-yl)pentanamide], for which the EC50 is less than 0.05 µM.

`CCC[C@@H](O)C(=O)N1CC2(CC2)C[C@H]1C(=O)N[C@@H](C[C@@H]1CCNC1=O)C(=O)COC(F)(F)F` [Compound 766, (S)-5-((R)-2-hydroxypentanoyl)-N-((S)-3-oxo-1-((S)-2-oxopyrrolidin-3-yl)-4-(trifluoromethoxy)butan-2-yl)-5-azaspiro[2.4]heptane-6-carboxamide]: the EC50 is 0.05 to 0.2 µM.

As to `CC(C)C[C@@H](O)C(=O)N[C@@H](CC(C)C)C(=O)N[C@@H](C[C@@H]1CCNC1=O)C(=O)COC(F)(F)F` [Compound 767, (R)-2-hydroxy-4-methyl-N-((S)-4-methyl-1-oxo-1-(((S)-3-oxo-1-((S)-2-oxopyrrolidin-3-yl)-4-(trifluoromethoxy)butan-2-yl)amino)pentan-2-yl)pentanamide], the concentration giving a half-maximal response (EC50) fell in the range of 0.2 to 0.5 µM.

Regarding `O=C(N[C@@H](C[C@@H]1CCNC1=O)C(=O)COC(F)(F)F)C1CCCCCN1C(=O)[C@@H](O)c1ccccc1` (stereo partly drawn) [Compound 768, l-((S)-2-hydroxy-2-phenylacetyl)-N-((S)-3-oxo-1-((S)-2-oxopyrrolidin-3-yl)-4-(trifluoromethoxy)butan-2-yl)azepane-2-carboxamide], the EC50 is 0.05 to 0.2 µM.

Turning to `O=C(N[C@@H](C[C@@H]1CCNC1=O)C(=O)COC(F)(F)F)C1CCCCN1C(=O)[C@@H](O)c1ccccc1` (stereo partly drawn) [Compound 769, l-((S)-2-hydroxy-2-phenylacetyl)-N-((S)-3-oxo-1-((S)-2-oxopyrrolidin-3-yl)-4-(trifluoromethoxy)butan-2-yl)piperidine-2-carboxamide], the half-maximal effective concentration (EC50) was less than 0.05 µM.

Consider `CC(C)C[C@@H](O)C(=O)N1CC2(CCC2)CC1C(=O)N[C@@H](C[C@@H]1CCNC1=O)C(=O)COC(F)(F)F` (stereo partly drawn) [Compound 770, 6-((R)-2-hydroxy-4-methylpentanoyl)-N-((S)-3-oxo-1-((S)-2-oxopyrrolidin-3-yl)-4-(trifluoromethoxy)butan-2-yl)-6-azaspiro[3.4]octane-7-carboxamide], for which the EC50 lay within 0.05 to 0.2 µM.

On to `CC(C)C[C@@H](O)C(=O)N1C[C@@H](CC2CCC2)C[C@H]1C(=O)N[C@@H](C[C@@H]1CCNC1=O)C(=O)COC(F)(F)F` [Compound 772, (2S,4S)-4-(cyclobutylmethyl)-1-((R)-2-hydroxy-4-methylpentanoyl)-N-((S)-3-oxo-1-((S)-2-oxopyrrolidin-3-yl)-4-(trifluoromethoxy)butan-2-yl)pyrrolidine-2-carboxamide], for which the EC50 is less than 0.05 µM.

As to `O=C1NCC[C@H]1C[C@H](NC(=O)[C@@H]1CC2(CC2)CN1C(=O)COc1ccc(OC(F)(F)F)cc1)C(=O)COC(F)(F)F` [Compound 773, (S)-N-((S)-3-oxo-1-((S)-2-oxopyrrolidin-3-yl)-4-(trifluoromethoxy)butan-2-yl)-5-(2-(4-(trifluoromethoxy)phenoxy)acetyl)-5-azaspiro[2.4]heptane-6-carboxamide], the EC50 was less than 0.05 µM.

As for `CC(C)C[C@@H](O)C(=O)N1CC2(CC2)C[C@H]1C(=O)N[C@@H](C[C@@H]1CCCNC1=O)C(=O)COc1c(F)c(F)c(F)c(F)c1F` [Compound 779, (S)-5-((R)-2-hydroxy-4-methylpentanoyl)-N-((S)-3-oxo-1-((S)-2-oxopiperidin-3-yl)-4-(perfluorophenoxy)butan-2-yl)-5-azaspiro[2.4]heptane-6-carboxamide], the EC50 is less than 0.05 µM.

Take `O=C1NCC[C@H]1C[C@H](NC(=O)[C@@H]1C[C@@H](c2ccccc2)CN1C(=O)[C@@H](O)c1ccccc1)C(=O)COC(F)(F)F` [Compound 780, (2S,4S)-1-((S)-2-hydroxy-2-phenylacetyl)-N-((S)-3-oxo-1-((S)-2-oxopyrrolidin-3-yl)-4-(trifluoromethoxy)butan-2-yl)-4-phenylpyrrolidine-2-carboxamide]: the EC50 was less than 0.05 µM.

For the molecule `O=C1NCC[C@H]1C[C@H](NC(=O)[C@@H]1[C@H]2CCC[C@H]2CN1C(=O)c1noc2cc(Cl)ccc12)C(=O)COC(F)(F)F` [Compound 783, (1S,3aR,6aS)-2-(6-chlorobenzo[d]isoxazole-3-carbonyl)-N-((S)-3-oxo-1-((S)-2-oxopyrrolidin-3-yl)-4-(trifluoromethoxy)butan-2-yl)octahydrocyclopenta[c]pyrrole-1-carboxamide], the 50% effective concentration (EC50) is less than 0.05 µM.

Consider `O=C1NCC[C@H]1C[C@H](NC(=O)[C@@H]1C[C@@H](C(F)(F)F)CN1C(=O)[C@@H](O)c1ccccc1)C(=O)COC(F)(F)F` [Compound 785, (2S,4R)-1-((S)-2-hydroxy-2-phenylacetyl)-N-((S)-3-oxo-1-((S)-2-oxopyrrolidin-3-yl)-4-(trifluoromethoxy)butan-2-yl)-4-(trifluoromethyl)pyrrolidine-2-carboxamide], for which the EC50 is 0.05 to 0.2 µM.

For the molecule `O=C1NCC[C@H]1C[C@H](NC(=O)[C@@H]1C[C@@H](c2ccccc2)CN1C(=O)[C@H](O)c1ccccc1)C(=O)COC(F)(F)F` [Compound 786, (2S,4S)-1-((R)-2-hydroxy-2-phenylacetyl)-N-((S)-3-oxo-1-((S)-2-oxopyrrolidin-3-yl)-4-(trifluoromethoxy)butan-2-yl)-4-phenylpyrrolidine-2-carboxamide], the EC50 was 0.05 to 0.2 µM.

Take `CC(C)C[C@@H](O)C(=O)N1[C@H](C(=O)N[C@@H](C[C@@H]2CCNC2=O)C(=O)COC(F)(F)F)CCC1(C)C` [Compound 787, (S)-1-((R)-2-hydroxy-4-methylpentanoyl)-5,5-dimethyl-N-((S)-3-oxo-1-((S)-2-oxopyrrolidin-3-yl)-4-(trifluoromethoxy)butan-2-yl)pyrrolidine-2-carboxamide]: the EC50 was 0.05 to 0.2 µM.

A word on the EC50: it is the concentration giving half of the maximal effect.
